In the SangsterLogP compilation:

Assay: method code SF, from Furst, W.; Becher, M. (1990). Homologues of 2-acetamido-4-nitropropoxybenzene (Falimint). I. Preparation, physicochemical and organoleptic properties. Pharmazie, 45(12)934-935.

logP | Compound
2.4 | CCCOc1ccc([N+](=O)[O-])cc1NC(=O)CCC
1.85 | CCOc1ccc([N+](=O)[O-])cc1NC(=O)CC
3.48 | CCCCCCCCCCCC(=O)Nc1cc([N+](=O)[O-])ccc1OCCC
2.67 | CCCCCOc1ccc([N+](=O)[O-])cc1NC(C)=O
3.14 | CCCCCCCC(=O)Nc1cc([N+](=O)[O-])ccc1OCCC
2.78 | CCCCCC(=O)Nc1cc([N+](=O)[O-])ccc1OCCC
3.3 | CCCCCCCCCC(=O)Nc1cc([N+](=O)[O-])ccc1OCCC

Further lines, the compound ahead of its results:

Compound | logP
CCCCCCOc1ccc([N+](=O)[O-])cc1NC(C)=O | 2.91
CCCCCCCCOc1ccc([N+](=O)[O-])cc1NC(C)=O | 3.18
CCCOc1ccc([N+](=O)[O-])cc1NC(=O)CC | 1.93
COc1ccc([N+](=O)[O-])cc1NC(C)=O | 1.6
CCCCOc1ccc([N+](=O)[O-])cc1NC(C)=O | 2.26
CCCOc1ccc([N+](=O)[O-])cc1NC(C)=O | 1.6
CCCCCCCCCCCCOc1ccc([N+](=O)[O-])cc1NC(C)=O | 3.65
